Source: ChEMBL document CHEMBL4190194, “Dudawalamides A-D, Antiparasitic Cyclic Depsipeptides from the Marine Cyanobacterium Moorea producens” (J Nat Prod, 2017)
Numbered stars: 1 amine (or outer) side, 2 acyl side, 3 side chain; on linkers, the order of the positions; unused ones are H or OH. Bridge positions count the residues as written; N and C are the ends. Square brackets hold non-standard residues; d marks the D form. Peptide text beside a SMILES is read from it. ξ: configuration not given here. X1 = C#CCCC[C@H](O[*:2])C(C)(C)C(=O)[*:1]; Hmp(2R,3S) = CC[C@H](C)[C@@H](O)C(=O)O; NMeF = CN[C@@H](Cc1ccccc1)C(=O)O; ξNMeF = CNC(Cc1ccccc1)C(=O)O; NMeV = CN[C@H](C(=O)O)C(C)C; Hiv = CC(C)[C@H](O)C(=O)O; ξNMeV = CNC(C(=O)O)C(C)C; ξP = O=C(O)C1CCCN1

What was measured:
[1] = tested on: NCI-H460; test: Cytotoxicity against human H460 cells at 30 uM after 48 hrs by MTT assay; type: cell-based; conditions: nci-h460, 48 h
[2] = tested on: Plasmodium falciparum; test: Antimalarial activity against chloroquine-resistant Plasmodium falciparum W2 infected in human type A positive erythrocytes by [3H]-hypoxanthine incorporation assay; type: functional, organism-based
[3] = tested on: Leishmania donovani; test: Antileishmanial activity against Leishmania donovani WR2801 axenic amastigotes after 6 days by XTT assay; type: functional, organism-based; conditions: WR2801, 144 h
[4] = tested on: Trypanosoma cruzi; test: Antitrypanosomal activity against transgenic beta-galactosidase-expressing Trypanosoma cruzi Tulahuen clone C4 ATCC PRA33 assessed as growth inhibition at 10 ug/ml after 4 days relative to control; type: functional; conditions: Tulahuen clone C4 ATCC PRA33, 96 h, read-out: GI

Compound | Activity [1] | IC50 [2] | IC50 [3] | inhibition of growth at 10 µg/mL [4]
C#CCCC[C@@H]1OC(=O)[C@H](C)NC(=O)[C@H](Cc2ccc(OC)cc2)N(C)C(=O)[C@@H]2CCCN2C(=O)[C@H](Cc2ccccc2)N(C)C(=O)[C@H](C(C)C)NC(=O)C1(C)C | Non-Toxic | 8 µM | > 10 µM | 7%
C#CCCC[C@H]1OC(=O)CNC(=O)[C@@H](Cc2ccccc2)N(C)C(=O)[C@@H]2CCCN2C(=O)[C@H]([C@@H](C)CC)N(C)C(=O)[C@H](C)NC(=O)[C@H](C)OC(=O)C1(C)C | Non-Toxic | 3.6 µM | > 10 µM | 12%
C#CCCC[C@@H]1OC(=O)CNC(=O)[C@H](Cc2ccccc2)N(C)C(=O)[C@@H]2CCCN2C(=O)[C@@H]([C@@H](C)CC)OC(=O)[C@H](C(C)C)N(C)C(=O)[C@H](C(C)C)NC(=O)C1(C)C (V[NMeV][Hmp(2R,3S)]P[NMeF]G; linker N-C via X1) | Non-Toxic | 3.5 µM | 2.6 µM | 60%
C#CCCC[C@@H]1OC(=O)CNC(=O)C(Cc2ccccc2)N(C)C(=O)C2CCCN2C(=O)[C@H](C(C)C)OC(=O)C(C(C)C)N(C)C(=O)[C@H](C(C)C)NC(=O)C1(C)C (some centres undefined) (V[ξNMeV][Hiv][ξP][ξNMeF]G; linker N-C via X1) | Non-Toxic | 10 µM | – | –
